The experiment relates to C. auris. Description: microbe, parasite or virus in culture. Format: cell-based, Candida auris. The following applies: Candidozyma auris; Etest; read-out: fluconazole MIC in absence of azoffluxin. As to the method: FIGS. 2A-2E illustrate the above-described screening of the BU-CMD which identified azoffluxin as a fluconazole (FLC) potentiator against C. auris. […] Growth, as determined by optical density at 600 nm (OD600), is plotted in the presence of each CMD compound alone on the y-axis and in combination with FLC on the x-axis. Dotted lines represent 7-median absolute deviations from the median for each condition. […] FIG. 2B depicts the synergistic interactions. […] Growth was measured by the OD600 and normalized to the no drug control (see color bar). The fractional inhibitory concentration index (FICI) was calculated to determine the chemical interaction, with a value below 0.5 indicating synergy. […] FIG. 2D depicts FLC Etest strips in the presence and absence of 50 μM azoffluxin. A total of 1×10^6 C. auris cells were added to YPD agar plates, the E-test strip was added, and plates were incubated at 30° C. for 24 hours prior to imaging. FIG. 2. […] Dose-response assay where a two-fold dilution of azoffluxin was titered starting from 50 μM. Indicated titrations have a background concentration of FLC of 32 μg/mL, 4 μg/mL, 0.25 μg/mL, and 0.5 μg/mL for C. auris Ci6684 (Erg11Y132F), C. albicans (SN95), C. glabrata (BG2) or S. cerevisiae (BY4741), respectively. […] Dose response assays were incubated for 48 hours at 30° C. in RPMI. Growth in each well was plotted by the relative optical density to the respective no drug control (See color bar in FIG. 2B).
Compound potency was assessed alone by dose response assays or in combination with another compound by dose-response matrixes in 96-well plates, or 384-well, flat-bottom, microtiter plates (Corning) as previously described. Plates were incubated at 30° C. for the indicated time period. Growth was quantified by measuring OD600 and corrected for medium background. All strains were assessed in biological duplicate experiments with technical duplicates. […] For dose-response matrixes fractional inhibitory concentration index at 90% growth inhibition (FICI90) was calculated as previously described. […]

Molecules are shown by their SMILES.

From US11773086B2, “Fungal modulators” (TRUSTEES OF BOSTON UNIVERSITY, priority 2020, dated 2023) come the findings set out here.

Consider `OC(Cn1cncn1)(Cn1cncn1)c1ccc(F)cc1F` [fluconazole, reference compound], for which the MIC was more than 256 µg/mL.
